Data reported in patent publication US20260159474A1, “Aminoindane Compounds and Compositions and Methods of Their Therapeutic Use” (Solvonis Therapeutics Ireland Holdings Limited, priority 2021, published 2026).
Read-outs that look alike come from different tables or passages of the source.

Legend:
[1] = Brain tissue binding by equilibrium dialysis, rat brain homogenate; format: in vitro ADME; conditions: male, Sprague Dawley, pH 7.4, read-out: Rat brain tissue binding (Fu %)
Procedure: Methods: Plasma protein binding and blood tissue binding of test items (0.5 μM) was determined using biological samples from male Sprague Dawley (SD) rats and humans. […] Dexamethasone was used as a control compound for lung tissue binding. Various biological samples were spiked with test compounds according to the methods that follow.
Preparation of brain homogenate samples: Test items were dissolved in DMSO (or an appropriate solvent) to give a 10 mM solution. Further dilutions, to obtain […] working solutions (WS), were then prepared using 50% acetonitrile in Milli Q water. These 100×WS were used to spike the brain homogenate to obtain a final concentration of 5 μM. From this initial spiking solution, control samples (n=3) referred to as T=0, were immediately extracted by protein precipitation.
An equilibrium dialysis method was performed to determine protein binding in the various biological samples described herein. Materials were prepared and methods were in accordance with the following procedures.
Membranes were prepared for use in the equilibrium dialysis experiment. by soaking in deionized water for at least 60 minutes. After this period, 20% of pure ethanol was added, and the membranes were left in this solution for at least 20 minutes. The membranes were then rinsed in Milli-Q water prior to use.
To initiate the experiment, 150 μL of test item-free buffer (isotonic phosphate buffer for plasma and blood, artificial CSF buffer for brain or HBSS buffer for lung) was dispensed on one half-well of a 96-well dialyzer apparatus (HTDialysis LLC), and 150 μL of spiked matrix (plasma, blood, brain or lung) was loaded on the other half-well. Alternative volumes may be used according to the operating instructions of HTDialysis.
The artificial cerebrospinal fluid (CSF) buffer was prepared as follows, NaCl 3.652 g, KCl 93.2 mg, MgCl2 119.96 mg, CaCl2 92.61 mg, Na2HPO4*H2O 268.0 mg. These were dissolved in […] of MilliQ water, and the pH was adjusted to a pH of 7.4 with H3PO4.
Dialysis buffer was prepared by dissolving Na2HPO4 8.69 g, KH2PO4 1.90 g, and NaCl 4.11 g in […] of MilliQ water, and adjusting the pH to 7.4 with H3PO4. […]
Samples were then injected onto an HPLC MS/MS or UPLC MS/MS system. In order to control the integrity of the membrane after the dialysis process, the presence of protein was assessed in the buffer compartment. […]
Samples were analyzed in a LC-MS/MS system using an analytical method to monitor the compound to internal standard peak area ratios as representative of the compound concentrations. Alternatively, samples were analyzed by RapidFire. […]

[2] = In vivo pharmacokinetics and brain penetration in rats after IV administration; conditions: rat; for Kp at 2 h: 2 hours post-administration, read-out: brain to plasma ratio; for Vd: read-out: Vss
Procedure: Group 1: Therapeutic compounds were administered via the IV route to three rats at a target dose level of 0.5 mg/kg. Blood and brain samples were collected at 2 h after IV administration. Group 2: Therapeutic compounds were administered via the IV route to three rats (brain penetration group) at a target dose level of 0.5 mg/kg. Blood and brain samples were collected at 2 h after IV administration. Group 3: Therapeutic compounds were orally administered to three rats at a target dose level of 1 mg/kg.
All test formulations were prepared on the day of administration prior to dosing, stored at room temperature, and used as soon as possible. Formulations were prepared and administered by volume IV dosing. Actual body weights were determined on the day of dose administration, and the dose volumes were adjusted to the weight of the animal at the time of dose administration.
Blood was collected into K3 EDTA tubes at each of the following time points post-administration:
Group 1 (IV): 0.083, 0.33, 1, 2, 4, 6, 8, and 24 hours after dosing Group 2 (IV): 2 hours after dosing for terminal brain analysis
All blood samples were thoroughly and gently mixed following collection and placed on wet ice. Within 0.5 h of collection, blood was centrifuged (3000 g for 10 minutes at approximately 4° C.). Within 0.5 hours, 20 μL of each plasma sample was transferred into micronic tubes containing 80 μL of 0.1N Hepes buffer (pH 7.0-7.5). Residual plasma was transferred in micronic tubes as a second aliquot.
Brain specimens were diluted with 4 volumes of 0.1 N Hepes buffer and homogenized using the Precellys system. Blood and brain samples were assayed using an optimized method based on protein precipitation with acetonitrile followed by HPLC/MS-MS analysis. Given the unknown stability of the analytes in blood and brain, calibration standards (CS) and quality control samples (QC) were prepared in blood and brain samples on the day of dosing and stored together with study samples. It is assumed that this procedure accounted for any possible analyte degradation.
Study samples, CS, QC, and blanks were spiked with an internal standard (IS), to improve the precision of the assay. Study samples were analyzed together with CS, QC and blank samples (including double blanks). From the calibration curve, the linear range of the analytical method was determined and the lower/upper limits of quantitation were specified.
The results of blood and brain specimens were subjected to non-compartmental pharmacokinetic analysis using Phoenix WinNonlin 6.3, with the following parameters reported: Calculated concentration of test items in the corresponding formulation (expressed as mg/mL), dose levels (expressed as mg/kg) for each compound, actual collection times (expressed as hh: mM), blood concentrations (expressed as ng/ml) for each compound, brain concentrations (expressed as ng/g) for each compound, PK parameters (iv: Cmax, AUC, CLp, Vss, t1/2, if applicable; oral (PO): Cmax, tmax, AUC, F %, Fa %, Eh, AUC BB ratio, if applicable) for each compound, and abnormal clinical signs and relevant findings, if any.

[3] = brain and plasma, 0.5 mg/kg, IV
[4] = plasma, IV, 0.5 mg/kg, read-out: Clearance
[5] = plasma, IV, 0.5 mg/kg, read-out: Cmax

Q: For `COC(=O)c1cc2c(cc1OC)CC(N)C2` (stereo not shown) [CMP-401], which fraction unbound at 5 h, 5 μM [1] is on record?
A: The fraction unbound at 5 h, 5 μM was over 0.5.

Q: Which results are given for `COC(=O)c1ccc2c(c1)CC(N)C2` (stereo not shown) [CMP-405, 2-aminoindane-5-methylcarboxylate]?
A: Kp at 2 h [2, 3]: 2.12; AUC(0-inf) ([2]; plasma, IV, 0.5 mg/kg): 334 ng·h/mL; AUC(0-t) ([2]; plasma, IV, 0.5 mg/kg): 330 ng·h/mL; half-life ([2]; plasma, IV, 0.5 mg/kg): 19.8 min; clearance [2, 4]: 25.5 mL/min/kg; Cmax [2, 5]: 808 ng/mL; Vd ([2]; plasma, IV, 0.5 mg/kg): 0.602 L/kg; Clast ([2]; IV, 0.5 mg/kg): 8.08 ng/mL; Tlast ([2]; IV, 0.5 mg/kg): 2 h; fraction unbound at 5 h, 5 μM [1]: 0.24

Q: What does the source list for `CNC(C)Cc1ccc2c(c1)OCO2` (stereo not shown) [MDMA]?
A: AUCinf ([2]; IV, 1 mg/kg): 384 ng·h/mL; AUClast ([2]; IV, 1 mg/kg): 367 ng·h/mL; Clast ([2]; IV, 1 mg/kg): 12.1 ng/mL; Cmax ([2]; IV, 1 mg/kg): 625 ng/mL; T1/2 ([2]; IV, 1 mg/kg): 57.2 min; Tlast ([2]; IV, 1 mg/kg): 4 h; Vss ([2]; IV, 1 mg/kg): 3.02 L/kg; clearance ([2]; IV, 1 mg/kg): 45.6 mL/min/kg

Q: With `COc1ccc2c(c1)CC(N)C2` (stereo not shown) [MEAI, 5-methoxy-2-aminoindane] as the compound, how does the Kp at 2 h [2, 3] read?
A: Its Kp at 2 h is 2.21.

Q: What about the Kp uu at 2 h ([2]; brain and plasma, intravenous, 0.5 mg/kg, assuming free plasma concentration equals total plasma concentration) of the same compound?
A: Its Kp uu at 2 h is 0.71.

Q: And the AUC(0-inf) ([2]; plasma, IV, 0.5 mg/kg)?
A: Its AUC(0-inf) is 788 ng·h/mL.

Q: What about the AUC(0-t) ([2]; plasma, IV, 0.5 mg/kg) of the same compound?
A: Its AUC(0-t) is 773 ng·h/mL.

Q: And the half-life ([2]; plasma, IV, 0.5 mg/kg)?
A: The half-life was 29.6 min.

Q: What about the clearance [2, 4] of the same compound?
A: Its clearance is 10.6 mL/min/kg.

Q: And the Cmax [2, 5]?
A: Its Cmax is 1400 ng/mL.

Q: And the Vd ([2]; plasma, IV, 0.5 mg/kg)?
A: The Vd was 0.376 L/kg.

Q: What about the “Clast” value ([2]; IV, 0.5 mg/kg) of the same compound?
A: The value was 24.7 ng/mL.

Q: And the “Tlast” value ([2]; IV, 0.5 mg/kg)?
A: Its value is 3 h.

Q: And the fraction unbound at 5 h, 5 μM [1]?
A: Its fraction unbound at 5 h, 5 μM is 0.33.

Q: Which fraction unbound at 5 h, 5 μM [1] does the source give for `COc1cc2c(cc1C)CC(N)C2` (stereo not shown) [MMAI, 5-methoxy-6-methyl-2-aminoindane] here?
A: The fraction unbound at 5 h, 5 μM was 0.12.
